Values joined by “and” are separate entries in the source; they are usually repeats but may differ in a detail not shown here. Identical values can stand only once.
How the values were obtained:
[1] = n-Octanol/PBS distribution coefficient (log D); assay type: physicochemical; conditions: radiolabeled ligand, 50 MBq/nmol, PBS pH 7.4
Method: The radioligand (0.5 MBq; 10 pmol, 25 μL) was then added to a reagent tube containing 1475 μL of PBS pH 7.4 and 1500 μL of n-octanol. The vials were vortexed vigorously followed by a centrifugation step for phase separation.
Determination of n-Octanol/PBS Distribution Coefficients (Log D Values). The distribution coefficients (log D values) of the ^64Cu-labeled radioligands (50 MBq/nmol) were determined by a shake-flask method using liquid-liquid extraction followed by phase separation as previously reported. Three experiments were performed with five replicates for each radioligand. Statistical significance of the data (p<0.05) was evaluated using an unpaired t-test (GraphPad Prism software, version 7).
Determination of n-Octanol/PBS Distribution Coefficients (Log D Values). […] A sample of the radioligands was mixed with phosphate-buffered saline (PBS) and n-octanol followed by vigorous vortexing. […] Three experiments were performed with five replicates for each compound.

[2] = system: PSMA-positive PC-3 PIP cells; assay: Cell uptake and internalization in PSMA-positive PC-3 PIP cells; assay type: cell-based
[3] = system: PC-3 PIP/flu tumor-bearing mice; assay: PET/CT imaging of PC-3 PIP/flu tumor-bearing mice; assay type: in vivo; conditions: 16 h after injection
Method: PET/CT Imaging Studies. PET/CT experiments were performed at 1 h, 4 h and 24 h after injection of the radioligands (5 MBq/l nmol). Mice were injected into a lateral tail vein with the respective radioligand (5 MBq, 1 nmol, 100 μL) diluted in saline containing 0.05% BSA. PET/CT scans were performed using a small-animal PET/CT scanner (G8, Perkin Elmer, Massachusetts, U.S.) as previously reported. The PET scans lasted for 10 min and were followed by a CT scan of 1.5 min. During the in vivo scans, the mice were anesthetized with a mixture of isoflurane and oxygen. Reconstruction of acquired data was performed using the software of the provider of the G8 scanner. All images were prepared using VivoQuant post-processing software (version 3.0, inviCRO Imaging Services and Software, Boston USA). The images were prepared by cutting 2% of the lower scale to make the tumors, liver and kidneys best visible.

[4] = system: human plasma proteins; assay: Ultrafiltration assay, binding to human plasma proteins; conditions: different dilutions of human plasma
Method: Therefore, the compounds were labeled with ^177Lu at a specific activity of 50 MBq/nmol and incubated in human plasma samples or PBS at room temperature. The free and plasma-bound fractions were separated using a centrifree ultrafiltration device (4104 centrifugal filter units [Millipore]; 30000 Da nominal molecular weight limit, methylcellulose micropartition membranes). The incubated solution was loaded to the ultrafiltration device and centrifuged at 2500 rpm for 40 min at 20° C. Samples from the filtrate were taken an analyzed for radioactivity in a gamma-counter. The amount of plasma-bound compound was calculated as the fraction of radioactivity measured in the filtrate relative to the corresponding loading solution (set to 100%).
Determination of Albumin-binding Properties. The binding of the radioligands to human plasma proteins was determined by an ultrafiltration assay. […] Three independent experiments were performed in duplicates with both radioligands and the data was fitted to a semi-logarithmic plot (non-linear regression, one-site, specific binding) to obtain the half maximum binding (B50) in GraphPad Prism software (version 7).
The ^177Lu-labeled PSMA ligands (50 MBq/nmol) were diluted in mouse plasma (Rockland, USA) and human plasma (Stiftung Blutspende SRK Aargau-Solothurn, Switzerland), respectively, and incubated for 15 min at room temperature. In addition, the radioligands were diluted in PBS (buffer solution without proteins) as a control experiment. Aliquots of the solutions were loaded onto an ultrafiltration device and centrifuged. The filtered activity was measured with a γ-counter and used for calculating the plasma protein-bound activity (retained on the filter membrane) as the percentage of total added activity. […] Statistical analysis (one-way ANOVA with Bonferroni's multiple comparison post-test) was performed using GraphPad Prism software, version 7. A p-value of <0.05 was considered statistically significant.

[5] = system: PC-3 PIP/flu tumor-bearing mice; assay: Biodistribution studies in PC-3 PIP/flu tumor-bearing mice; conditions: for Tu-to-muscle / Tumor-to-blood / Tumor-to-kidney / Tumor-to-liver: PC-3 PIP tumor
[6] = system: PC-3 PIP tumor; assay: Therapy study in PC-3 PIP tumor-bearing mice; assay type: in vivo; conditions: for TGDI2 / TGDI5: control = 1
Source text: Mice of Groups B and D received 2 MBq of the radioligand (1 nmol/mouse), whereas mice of Groups C and E received 5 MBq of the radioligand (1 nmol/mouse). The mice were monitored by measuring body weights and the tumor size every other day over 12 weeks. Mice were euthanized when pre-defined endpoint criteria were reached, or when the study was terminated at Day 84. The relative body weight (RBW) was defined as [BWx/BW0], where BWx is the body weight in gram at a given day x and BW0 the body weight in gram at day 0. The tumor dimension was determined by measuring the longest tumor axis (L) and its perpendicular axis (W) with a digital caliper. The tumor volume (V) was calculated according to the equation [V=0.5*(L*W2)]. The relative tumor volume (RTV) was defined as [TVx/TV0], where TVx is the tumor volume in mm3 at a given day x and TV0 the tumor volume in mm3 at Day 0.
The efficacy of the radionuclide therapy was expressed as the tumor growth delay (TGDx), which was calculated as the time required for the tumor volume to increase x-fold over the initial volume at the Day 0. The tumor growth delay index [TGDIx=TGDx(T)/TGDx(C)] was calculated as the TGDx ratio of treated mice (T) over control mice (C) for a 2-fold (x=2, TGD2) and 5-fold (x=5, TGD5) increase of the initial tumor volume. As a measure to identify undesired side effects, body weights were compared at the day when the first control mouse had to be euthanized. After euthanasia, kidneys, liver and the brain were collected and weighed. The organ ratios (kidney-to-brain and liver-to-brain) were calculated using the organ masses obtained at the day of euthanasia.
The data was analyzed for significance as indicated in the result part using a one-way ANOVA with Tukey's multiple comparison post-test using GraphPad Prism software (version 7). A value of p<0.05 was considered statistically significant. Survival analysis was performed with Kaplan-Meier curves and a log-rank tests (Mantel Cox).

[7] = system: mouse plasma proteins; assay: Ultrafiltration assay, binding to mouse plasma proteins; assay type: in vitro ADME
Method: Filter Assay. […] In addition, the radioligands were diluted in PBS (buffer solution without proteins) as a control experiment. Aliquots of the solutions were loaded onto an ultrafiltration device and centrifuged. The filtered activity was measured with a γ-counter and used for calculating the plasma protein-bound activity (retained on the filter membrane) as the percentage of total added activity. […] Statistical analysis (one-way ANOVA with Bonferroni's multiple comparison post-test) was performed using GraphPad Prism software, version 7. A p-value of <0.05 was considered statistically significant.

[8] = system: PSMA-negative PC-3 flu cells; assay: Cell uptake in PSMA-negative PC-3 flu cells; assay type: cell-based
Method: Cells were grown in RPMI cell culture medium supplemented with 10% fetal calf serum, L-glutamine, antibiotics and puromycin (2 μg/mL) at 37° C. and 5% CO2 (standard conditions). Routine cell culture was performed twice a week using PBS/EDTA (2 mM) for washing the cells and trypsin for detachment of the cells. The cells were seeded in 12-well plates (˜3×10^5 cells in 2 mL RPMI medium/well) allowing adhesion and growth overnight at standard conditions. The supernatant was removed and the cells washed with PBS pH 7.4 prior to the addition of RPMI medium without supplements (975 μL/well). […] After incubation, the cells were washed three times with ice-cold PBS and the total uptake of the radioligands was determined (PSMA-bound fraction on the surface and internalized fraction). The fraction of internalized radioligand was evaluated in cells washed with ice-cold PBS, followed by a 10 min incubation with stripping buffer (0.05 M glycine stripping buffer in 100 mM NaCl, pH 2.8) and an additional washing step with ice-cold PBS. […] After homogenization of the cell suspensions, the protein concentration was determined for each sample using a Micro BCA Protein Assay kit (Pierce, Therma Scientific). The results were expressed as percentage of total added radioactivity per […]. […]

[9] = Stability of radioligands over time by RP-HPLC; assay type: physicochemical
Method: Quality control of ^64Cu-labeled PSMA ligands (250 MBq in 120 μL; 50 MBq/nmol) was determined immediately after preparation (t=0 h) using RP-HPLC. The reaction mixtures were diluted in saline to an activity concentration of 250 MBq/500 μL and incubated at room temperature. The integrity of the compounds was investigated over one day (t=1 h, 4 h and 24 h, respectively). The amount of intact radioligand was quantified by integration of the product peak of the HPLC chromatograms in relation to the sum of all radioactive peaks of degradation products of unknown structure and traces of released ^64Cu which were set to 100%.
The stability of the radioligands was determined over time using RP-HPLC. […] The radiolabeling efficiency of the ligands was determined immediately after preparation (t=0 h) and the integrity of the compounds was investigated after incubation for various periods (t=1 h, 4 h and 24 h, respectively) at room temperature. The amount of intact compound was quantified by integration of the product peak of the HPLC chromatograms in relation to the sum of all radioactive peaks of degradation products of unknown structure and traces of free ^177Lu, which were set to 100%.

[10] = non-decay-corrected biodistribution data up to 192 h p.i.

Cc1ccc(CCCC(=O)NCCCC[C@H](NC(=O)CCC(C(=O)O)N2CCN(CC(=O)O)CCN(CC(=O)O)CC2)C(=O)NC[C@H]2CC[C@H](C(=O)N[C@H](Cc3ccc4ccccc4c3)C(=O)NCCCC[C@@H](NC(=O)N[C@H](CCC(=O)O)C(=O)O)C(=O)O)CC2)cc1 (some centres unmarked) [^64Cu-PSMA-ALB-89, metal not drawn]
logD ([1]; n-octanol/PBS): -2.3 ± 0.7
cell uptake ([2]; 2 h): ~46%
internalized fraction ([2]; 2 h): ~14%
cell uptake ([2]; 4 h): ~52%
internalized fraction ([2]; 4 h): ~14%
tumor-to-kidney ratio of accumulated radioligand (visual examination) [3]: > 1
half-maximum binding (B50), [HSA]-to-[radioligand] ratio [4]: 454 and 770
Tu-to-muscle ([5]; 1 h p.i.): 9.0 ± 1.13
Tumor-to-blood ([5]; 1 h p.i.): 0.91 ± 0.02
Tumor-to-kidney ([5]; 1 h p.i.): 0.40 ± 0.02
Tumor-to-liver ([5]; 1 h p.i.): 3.37 ± 0.31
Tu-to-muscle ([5]; 4 h p.i.): 36.3 ± 2.25
Tumor-to-blood ([5]; 4 h p.i.): 3.61 ± 0.30
Tumor-to-kidney ([5]; 4 h p.i.): 0.70 ± 0.04
Tumor-to-liver ([5]; 4 h p.i.): 13.3 ± 1.20
Blood ([5]; 24 h p.i.): < 3.2 % IA/g
PC-3 PIP Tumor ([5]; 24 h p.i.): 97.1±7.01 % IA/g
Tu-to-muscle ([5]; 24 h p.i.): 200±38.2
Tumor-to-blood ([5]; 24 h p.i.): 31.3 ± 3.82
Tumor-to-kidney ([5]; 24 h p.i.): 2.68 ± 0.36
Tumor-to-liver ([5]; 24 h p.i.): 23.6 ± 3.37

O=C([O-])CN1CCN(CC(=O)[O-])CCN(CC(=O)NCC2CCC(C(=O)N[C@@H](Cc3ccc4ccccc4c3)C(=O)NCCCC[C@H](NC(=O)N[C@@H](CCC(=O)O)C(=O)O)C(=O)O)CC2)CCN(CC(=O)[O-])CC1.[177Lu+3] (some centres unmarked) [^177Lu-PSMA-617, reference compound]
first mouse of group euthanized ([6]; 2 MBq/mouse (Groups B, D)): 12 days
median survival ([6]; 2 MBq/mouse (Groups B, D)): 19 days
TGDI2 ([6]; 2 MBq/mouse (Groups B, D)): 0.8 and 0.8 ± 0.3
TGDI5 ([6]; 2 MBq/mouse (Groups B, D)): 1.4 and 1.4 ± 0.1
first mouse of group euthanized ([6]; 5 MBq/mouse (Groups C, E)): 26 days
median survival ([6]; 5 MBq/mouse (Groups C, E)): 32 days
TGDI2 ([6]; 5 MBq/mouse (Groups C, E)): 2.1 ± 0.3
TGDI5 ([6]; 5 MBq/mouse (Groups C, E)): 2.5 ± 0.3
n-octanol/PBS distribution coefficient (log D value) [1]: −4.4±0.15
cell uptake ([2]; 4 h incubation, PC-3 PIP cells): 58%
internalized fraction ([2]; 4 h incubation, PC-3 PIP cells): 12%
plasma protein-bound fraction [7]: 9.3±1.1%
uptake in PC-3 flu cells [8]: below 0.5%
intact compound ([9]; after 4 h, absence of L-ascorbic acid): ~86%
intact compound ([9]; after 24 h, absence of L-ascorbic acid): < 2%
intact compound ([9]; after 24 h, with L-ascorbic acid): > 98%
PC-3 PIP Tumor ([5]; 4 h p.i.): ~56 % IA/g
Kidneys ([5]; 24 h p.i.): < 1 % IA/g
Tumor-to-blood ([5]; 24 h p.i.): 2730 ± 195
Tumor-to-kidney ([5]; 24 h p.i.): 49 ± 3.7
Tumor-to-liver ([5]; 24 h p.i.): 528 ± 51
Tumor-to-blood ([5]; 48 h p.i.): 3776 ± 585
Tumor-to-kidney ([5]; 48 h p.i.): 81 ± 11
Tumor-to-liver ([5]; 48 h p.i.): 710 ± 97
PC-3 PIP Tumor ([5]; 192 h p.i.): ~20 % IA/g
AUC PC-3 PIP tumor [5, 10]: 3691 ± 156 % IA/g · h
AUC blood [5, 10]: 52 ± 1.5 % IA/g · h
AUC kidneys [5, 10]: 99 ± 11 % IA/g · h
AUC liver [5, 10]: 6.2 ± 1.6 % IA/g · h
Ratio of AUCs AUCTu-to-AUCBl ([5]; tumor to blood): 71
Ratio of AUCs AUC-Tu-to-AUC-Ki ([5]; tumor to kidneys): 37
Ratio of AUCs AUCTu-to-AUCLi ([5]; tumor to liver): 592

— patent publication US11629201B2, “PSMA-binding agents and uses thereof” (ITM Isotope Technologies Munich SE, priority 2017, dated 2023)
